# “And” between values parts separate entries of the source, which are not always exact repeats. Equal entries are not always repeated.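 Where inhibition never reached the appropriate level, the endpoint shown equals the highest concentration tested. Otherwise, values were interpolated linearly from a five-concentration, 48-hour dose response in 96-well plates. Here, GI50 denotes the concentration required for 50% inhibition of growth.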 The source made the active and inactive calls. Cut-off read from the data, not from the text of the source: active = GI50 up to about 1.1 µM and inactive = higher.
# What was measured:
# Test in all cases: NCI-60 cell line screen, 48 h
# M19-MEL = tested on: M19-MEL
# HOP-18 = tested on: HOP-18
# DMS-273 = tested on: DMS-273
# DLD-1 = tested on: DLD-1
# XF498 = tested on: XF498
# SNB-78 = tested on: SNB-78
# BT-549 = tested on: BT-549
# RXF 631 = tested on: RXF 631
# LXFL 529 = tested on: LXFL 529
SMILES,GI50 (M19-MEL),GI50 (HOP-18),GI50 (DMS-273),GI50 (DLD-1),GI50 (XF498),GI50 (SNB-78),GI50 (BT-549),GI50 (RXF 631),GI50 (LXFL 529)
Nc1ccn(C2OC(COP(=O)(O)Oc3ccccc3)C(O)C2O)c(=O)n1 (configuration not stated),50.2 µM (inactive),> 74.5 µM (inactive),18.4 µM (inactive),> 100 µM (inactive),< 0.01 µM (active),> 100 µM (inactive),,,
COc1ccc(N2NC(c3ccccc3)(c3ccccc3)C(C)C2=O)cc1 (configuration not stated),,,,,,,> 100 µM (inactive),,
O=C(Nc1nnc(S)[nH]1)C(=O)C(c1cnc2ccc([N+](=O)[O-])cc2n1)[N+](=O)[O-] (configuration not stated),> 100 µM (inactive),> 100 µM (inactive),,> 100 µM (inactive),> 100 µM (inactive),> 100 µM (inactive),,> 100 µM (inactive),> 100 µM (inactive)
c1cc(CNC2C3CCC(C3)C2c2c[nH]c3ccccc23)cc(CNC2C3CCC(C3)C2c2c[nH]c3ccccc23)c1 (configuration not stated),,,,,,,1.73 µM (inactive) and 1.75 µM (inactive),,
Oc1ccc(Br)cc1/C=N/C1CCCCC1,,,,,,,35.3 µM (inactive),,
C=CCCCC12CCCc3cccc(c31)NC2=O (configuration not stated),,,,19.6 µM (inactive),20.6 µM (inactive),,,20.6 µM (inactive),
COc1ccc(-n2cnnc2-c2nsc3ccccc23)cc1,> 100 µM (inactive),36.6 µM (inactive),44.7 µM (inactive),,,> 100 µM (inactive),,,> 100 µM (inactive)
CC1(C)Cc2nnsc2C2=C1C(=O)CCS2,,> 100 µM (inactive),> 100 µM (inactive),> 100 µM (inactive),,,,,> 100 µM (inactive)
CCC(/C(=N/NC(=O)C[N+](C)(C)C)c1ccccc1)C1OC(=O)c2ccccc21 (configuration not stated),> 100 µM (inactive),,> 100 µM (inactive),,> 100 µM (inactive),> 100 µM (inactive),,> 100 µM (inactive),> 100 µM (inactive)
CCN(CC)CCn1c(=O)c2c(C)c3oc4ccccc4oc3c(C)c2c1=O,,,,,,,> 100 µM (inactive),,
CN(C)C(=S)N/N=C(\C(=N/NC(=S)N(C)C)c1ccccn1)c1ccccn1,,,,,,,14.6 µM (inactive),,
COC1=CC(=O)c2c(c(O)c3oc4cc(OC)cc(C)c4c(=O)c3c2O)C1=O [BIKAVERIN],0.908 µM (active),0.906 µM (active),0.759 µM (active),1.8 µM (inactive),0.942 µM (active),3.41 µM (inactive),,,

# From ChEMBL document CHEMBL1201862, “PubChem BioAssay data set” (2004)
